Reference: patent publication US11759454B2, “Diazole lactams” (CHEMOCENTRYX, INC., priority 2012, dated 2023)

Test system: inflammatory cells recruited to the inflamed synovial fluid of the knee joints
Test: Rabbit model of destructive joint inflammation (rabbit LPS study)
Assay type: in vivo
Conditions: female New Zealand rabbits, intra-articular LPS 10 ng, oral dosing in 1% methocel 2 h before and 4 h after LPS, lavage at 16 h
Experimental: a) Rabbit Model of Destructive Joint Inflammation
A rabbit LPS study was conducted essentially as described in Podolin, et al. J. Immunol. 169(11):6435-6444 (2002). Female New Zealand rabbits (approximately 2 kilograms) were treated intra-articularly in both knees with LPS (10 ng). The compound of interest, for example 1.016, (formulated in 1% methocel) or vehicle (1% methocel) was dosed orally at a 5 ml/kg dose volume at two times (2 hours before the intra-articular LP S injection and 4 hours after the intra-articular LP S injection). Sixteen hours after the LP S injection, knees were lavaged and cells counts were performed. Beneficial effects of treatment were determined by reduction in the number of inflammatory cells recruited to the inflamed synovial fluid of the knee joints.

Structure (SMILES) | reduction in the number of inflammatory cells recruited to the inflamed synovial fluid of the knee joints
CC(C)c1c(N2CCC(n3cnc(C(F)(F)F)c3)C2=O)cnn1-c1ccc(F)cc1 (stereo not drawn) [Compound 1.016] | significant reduction in recruited inflammatory cells

Test system: CCR1 bearing neutrophils
Test: Murine model of inflammation (thioglycolate induced peritoneal inflammation)
Assay type: in vivo
Conditions: 3% thioglycolate into the peritoneum
Experimental: Murine Model of Inflammation
A method of inducing peritoneal inflammation by the introduction of 3% thioglycolate into the peritoneum is well know in the art. Following the introduction of thioglycolate, a rapid influx of immune cells to the site, primarily CCR1 bearing neutrophils, results in local inflammation at 24 hours. A peritoneal exudate can be sampled, and the cell number and composition can be assessed to determine the anti-inflammatory properties of a compound of interest administered before, during or after the thioglycolate induction.

Structure (SMILES) | neutrophil number in peritoneal exudate | total cell number in peritoneal exudate
Cc1nc(C(F)(F)F)cn1[C@H]1CCN(c2nnn(-c3ccc(Cl)cc3)c2C(C)C)C1=O [Compound 1.042] | dramatic decrease | dramatic decrease

Target: T1, CCR1 (Homo sapiens, UniProt P32246)
T1 construct: host or cells: THP-1 cells (or freshly isolated monocytes)
T1 sequence (P32246 1-355): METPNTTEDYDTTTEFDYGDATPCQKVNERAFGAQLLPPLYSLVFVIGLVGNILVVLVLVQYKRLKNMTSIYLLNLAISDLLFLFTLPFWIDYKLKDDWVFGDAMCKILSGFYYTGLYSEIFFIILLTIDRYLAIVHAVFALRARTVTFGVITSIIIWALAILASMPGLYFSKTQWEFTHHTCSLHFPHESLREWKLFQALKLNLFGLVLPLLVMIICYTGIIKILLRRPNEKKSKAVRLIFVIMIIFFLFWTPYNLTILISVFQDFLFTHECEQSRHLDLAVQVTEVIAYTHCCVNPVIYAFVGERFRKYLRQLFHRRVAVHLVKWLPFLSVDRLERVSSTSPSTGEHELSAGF
Test: Chemotaxis assay (inhibition of CCR1 mediated migration)
Assay type: cell-based
Conditions: chemotaxis of THP-1 or monocyte cells toward CCR1 chemokine ligand (MIP-1α, CCL15/leukotactin); read-out: Avg Mig IC50
Experimental: THP-1 cells were obtained from ATCC (TIB-202) and cultured as a suspension in RPMI-1640 medium supplemented with 2 mM L-glutamine, 1.5 g/L sodium bicarbonate, 4.5 g/L glucose, 10 mM HEPES, 1 mM sodium pyruvate, 0.05% 2-mercaptoethanol and 10% FBS. Cells were grown under 5% CO2/95% air, 100% humidity at 37° C. and subcultured twice weekly at 1:5 (cells were cultured at a density range of 2×10^5 to 2×10^6 cells/mL) and harvested at 1×10^6 cells/mL. THP-1 cells express CCR1 and can be used in CCR1 binding and functional assays.
Chemotaxis assays were performed using 5 μm pore polycarbonate, polyvinylpyrrolidone-coated filters in 96-well chemotaxis chambers (Neuroprobe; Gaithersburg, Md.) using chemotaxis buffer (Hank's balanced salt solution (HBSS) and 1% FBS). CCR1 chemokine ligands (i.e., MIP-1α, CCL15/Leukotactin; R&D Systems; Minneapolis, Minn.) are use to evaluate compound mediated inhibition of CCR1 mediated migration. Other chemokines (i.e., SDF-1α; R&D Systems; Minneapolis, Minn.) are used as specificity controls. The lower chamber was loaded with 29 μl of chemokine (i.e., 0.1 nM CCL15/Leukotactin) and varying amounts of compound; the top chamber contained 100,000 THP-1 or monocyte cells in 20 μl. The chambers were incubated 1-2 hours at 37° C., and the number of cells in the lower chamber quantified either by direct cell counts in five high powered fields per well or by the CyQuant assay (Molecular Probes), a fluorescent dye method that measures nucleic acid content and microscopic observation.
One of the primary functions of chemokines is their ability to mediate the migration of chemokine receptor-expressing cells, such as white blood cells. To confirm that a compound of interest inhibited not only CCR1 specific binding and signaling (at least as determined by calcium mobilization assays), but also CCR1 mediated migration, a chemotaxis assay was employed. THP-1 myelomonocytic leukemia cells, which resemble monocytes, as wells as freshly isolated monocytes, were used as targets for chemoattraction by CCR1 chemokine ligands (i.e., MIP-1α, CCL15/leukotactin). Cells were placed in the top compartment of a microwell migration chamber, while MIP-1α (or other potent CCR1 chemokine ligand) and increasing concentrations of a compound of interest was loaded in the lower chamber. […] To ascertain a compound of interest's affinity for CCR1 as well as to confirm its ability to inhibit CCR1 mediated cell migration, inhibitory activity was titered over a 1×10^−10 to 1×10^−4 M range of compound concentrations in this chemotaxis assay. In this assay, the amount of compound was varied; while cell number and chemokine agonist concentrations were held constant. After the chemotaxis chambers were incubated 1-2 hours at 37° C., the responding cells in the lower chamber were quantified by labeling with the CyQuant assay (Molecular Probes), a fluorescent dye method that measures nucleic acid content, and by measuring with a Spectrafluor Plus (Tecan). The computer program Prism from GraphPad, Inc. (San Diego, Calif.) was used to calculate IC50 values. IC50 values are those compound concentrations required to inhibit the number of cells responding to a CCR1 agonist by 50%.

Structure (SMILES) | IC50 [nM]
CCCc1c(N2CCC(n3nc(C(F)(F)F)c(Cl)c3C)C2=O)cnn1-c1ccc(F)cc1 (stereo not drawn) [Compound 1.007] | 100 to 20000
Cc1c(Cl)c(C(F)(F)F)nn1C1CCN(c2cnn(-c3ccc(Cl)cc3)c2C(C)C)C1=O (stereo not drawn) [Compound 1.011] | ≤ 100
CC(C)c1c(N2CCC(n3cnc(C(F)(F)F)c3)C2=O)cnn1-c1ccc(F)cc1 (stereo not drawn) [Compound 1.016] | 100 to 20000
Cc1nc(C(F)(F)F)cn1C1(C)CCN(c2cnn(-c3ccc(Cl)cc3)c2C(C)C)C1=O (stereo not drawn) [Compound 1.003] | 100 to 20000
Cc1c(Cl)c(C(F)(F)F)nn1C1CCN(c2cnn(-c3ccc(F)cc3)c2C(C)(C)C)C1=O (stereo not drawn) [Compound 1.020] | 100 to 20000
Cc1c(Cl)c(C(F)(F)F)nn1C1CCN(c2cnn(-c3ccc(F)cc3)c2C2CC2)C1=O (stereo not drawn) [Compound 1.006] | ≤ 100
Cc1nn(C2CCN(c3cnn(-c4ccc(F)cc4)c3C(C)C)C2=O)c(C(C)(C)O)c1Cl (stereo not drawn) [Compound 1.017] | 100 to 20000
Cc1nc(C(F)(F)F)cn1C1CC(C)N(c2cnn(-c3ccc(F)cc3)c2C(C)C)C1=O (stereo not drawn) [Compound 1.005] | 100 to 20000
Cc1nc(C(F)(F)F)cn1C1CCN(c2cnn(-c3ccc(Cl)cc3)c2C(C)C)C1=O (stereo not drawn) [Compound 1.008] | ≤ 100
C/C=C(\C)c1c(N2CCC(n3nc(C(F)(F)F)c(Cl)c3C)C2=O)cnn1-c1ccc(F)cc1 (stereo not drawn) [Compound 1.012] | 100 to 20000
CCC(C)c1c(N2CCC(n3nc(C(F)(F)F)c(Cl)c3C)C2=O)cnn1-c1ccc(F)cc1 (stereo not drawn) [Compound 1.010] | ≤ 100
Cc1c(Cl)c(C(C)(C)O)nn1C1CCN(c2cnn(-c3ccc(F)cc3)c2C(C)C)C1=O (stereo not drawn) [Compound 1.018] | 100 to 20000
Cc1c(Cl)c(C(F)(F)F)nn1C1CC(C)N(c2cnn(-c3ccc(F)cc3)c2C(C)C)C1=O (stereo not drawn) [Compound 1.009] | ≤ 100
CC(C)c1c(N2CCC(n3nc(-c4ncc[nH]4)c4c(N)ncnc43)C2=O)cnn1-c1ccc(F)cc1 (stereo not drawn) [Compound 1.014] | 100 to 20000
CCc1nc(C(F)(F)F)cn1C1CCN(c2cnn(-c3ccc(Cl)cc3)c2C(C)C)C1=O (stereo not drawn) [Compound 1.004] | ≤ 100
Cc1nc(C(F)(F)F)cn1C1CCN(c2cnn(-c3ccc(F)cc3)c2OC(C)C)C1=O (stereo not drawn) [Compound 1.002] | ≤ 100
CCCc1c(N2CCC(n3nc(C(F)(F)F)c(Cl)c3C)C2=O)cnn1-c1cccc(F)c1 (stereo not drawn) [Compound 1.019] | 100 to 20000
Cc1c(Cl)c(-c2ncc[nH]2)nn1C1CCN(c2cnn(-c3ccc(F)cc3)c2C(C)C)C1=O (stereo not drawn) [Compound 1.015] | 100 to 20000
CC(C)c1c(N2CCC(n3ccc(C(F)(F)F)n3)C2=O)cnn1-c1ccc(F)cc1 (stereo not drawn) [Compound 1.013] | 100 to 20000
Cc1nc(C(F)(F)F)cn1C1CCN(c2cnn(-c3ccc(F)cc3)c2N(C)C)C1=O (stereo not drawn) [Compound 1.001] | 100 to 20000

Other lines, results leading:

IC50 [nM] | Structure (SMILES)
≤ 100 | CCc1c(N2CCC(n3nc(C(F)(F)F)c(Cl)c3C)C2=O)cnn1-c1ccc(F)cc1 (stereo not drawn) [Compound 1.032]
100 to 20000 | Cc1nc(C(F)(F)F)cn1C1CCN(c2cnn(-c3ccc(F)cc3)c2C)C1=O (stereo not drawn) [Compound 1.033]
100 to 20000 | Cc1nc(C(F)(F)F)cn1C1CCN(c2cnn(-c3ccc(F)cc3)c2)C1=O (stereo not drawn) [Compound 1.039]
100 to 20000 | Cc1c(Cl)c(C(F)(F)F)nn1C1CCN(c2cnn(-c3ccc(F)cc3)c2-c2ccccc2)C1=O (stereo not drawn) [Compound 1.026]
100 to 20000 | Cc1c(N2CCCC(n3nc(C(F)(F)F)c(Cl)c3C)C2=O)cnn1-c1ccc(F)cc1 (stereo not drawn) [Compound 1.030]
100 to 20000 | Cc1cc(C(F)(F)F)nn1C1CCN(c2cnn(-c3ccc(F)cc3)c2)C1=O (stereo not drawn) [Compound 1.038]
≤ 100 | Cc1nc(C(F)(F)F)cn1[C@H]1CCN(c2cnn(-c3ccc(Cl)cc3)c2C(C)C)C1=O [Compound 1.045]
≤ 100 | Cc1nc(C(F)(F)F)cn1C1CCN(c2cnn(-c3ccc(F)cc3)c2C(C)C)C1=O (stereo not drawn) [Compound 1.025]
100 to 20000 | Cc1nc(C(F)(F)F)cn1C1CCN(c2cnn(-c3ccc(Cl)cc3)c2C(F)(F)F)C1=O (stereo not drawn) [Compound 1.043]
100 to 20000 | COc1cc(-n2ncc(N3CC[C@H](n4cc(C(F)(F)F)nc4C)C3=O)c2C(C)C)ccc1Cl [Compound 1.041]
100 to 20000 | Cc1c(Cl)c(C(F)(F)F)nn1C1CCN(c2cnn(-c3cccc(F)c3)c2I)C1=O (stereo not drawn) [Compound 1.023]
100 to 20000 | Cc1c(N2CCCCC(n3nc(C(F)(F)F)c(Cl)c3C)C2=O)cnn1-c1ccc(F)cc1 (stereo not drawn) [Compound 1.029]
100 to 20000 | Cc1c(Cl)c(C(F)(F)F)nn1C1CCCN(c2cnn(-c3ccc(F)cc3)c2)C1=O (stereo not drawn) [Compound 1.037]
100 to 20000 | CC(C)c1c(N2CCC(n3nc(-c4ncc[nH]4)c4cccnc43)C2=O)cnn1-c1ccc(F)cc1 (stereo not drawn) [Compound 1.021]
≤ 100 | Cc1cc(C(F)(F)F)nn1C1CCN(c2cnn(-c3ccc(F)cc3)c2C(C)C)C1=O (stereo not drawn) [Compound 1.022]
≤ 100 | Cc1nc(C(F)(F)F)cn1C1CCN(c2cnn(-c3ccc(Cl)cc3)c2C2CCC2)C1=O (stereo not drawn) [Compound 1.044]
100 to 20000 | Cc1nc(C(F)(F)F)cn1C1CCCN(c2cnn(-c3ccc(F)cc3)c2C)C1=O (stereo not drawn) [Compound 1.031]
≤ 100 | Cc1c(Cl)c(C(F)(F)F)nn1C1CCN(c2cnn(-c3ccc(F)cc3)c2C(C)C)C1=O (stereo not drawn) [Compound 1.028]
100 to 20000 | Cc1c(N2CCC(n3nc(C(F)(F)F)nc3C)C2=O)cnn1-c1ccc(F)cc1 (stereo not drawn) [Compound 1.034]
100 to 20000 | Cc1c(Cl)c(C(F)(F)F)nn1C1CCN(c2cnn(-c3ccc(F)cc3)c2)C1=O (stereo not drawn) [Compound 1.040]
≤ 100 | Cc1nc(C(F)(F)F)cn1[C@H]1CCN(c2nnn(-c3ccc(Cl)cc3)c2C(C)C)C1=O [Compound 1.042]
100 to 20000 | Cc1c(Cl)c(C(F)(F)F)nn1C1CCN(c2cnn(-c3cccc(F)c3)c2C2CC2)C1=O (stereo not drawn) [Compound 1.024]
100 to 20000 | Cc1c(Cl)c(C(F)(F)F)nn1C1CCN(c2cnn(-c3cccc(F)c3)c2-c2ccoc2)C1=O (stereo not drawn) [Compound 1.027]
100 to 20000 | Cc1nc(C(F)(F)F)cn1C1CCCN(c2cnn(-c3ccc(F)cc3)c2C)C1=O (stereo not drawn) [Compound 1.036]
100 to 20000 | Cc1c(N2CCC(n3nc(C(F)(F)F)c(Cl)c3C)C2=O)cnn1-c1ccc(F)cc1 (stereo not drawn) [Compound 1.035]
